Patent US20080214582A1, “Purine Derivatives as Inhibitors of Receptor Tyrosine Kinase Activity” (priority 2005, published 2008)

What was measured:
Tie-2 kinase = Tie-2 kinase (Homo sapiens, UniProt Q02763); assay: Tie-2 kinase inhibition (flashplate, poly(Glu,Tyr), 33P-ATP); type: biochemical
Method: The TIE-2 tests can be carried out, for example, analogously to the methods indicated in WO 02/44156.
The assay determines the inhibiting activity of the substances to be tested in the phosphorylation of the substrate poly(Glu, Tyr) by Tie-2 kinase in the presence of radioactive ^33P-ATP. The phosphorylated substrate binds to the surface of a “flashplate” microtitre plate during the incubation time. After removal of the reaction mixture, the microtitre plate is washed a number of times and the radioactivity on its surface is subsequently measured. An inhibiting effect of the substances to be measured results in lower radioactivity compared with an undisturbed enzymatic reaction.

VEGFR (KDR) = biological target: T1, VEGFR (KDR) (Homo sapiens, UniProt P35968); assay: VEGF receptor kinase assay (pEY substrate, 33P incorporation); type: biochemical; conditions: kinase inhibition
T1 construct: cloning the cytoplasmic domain of the KDR kinase as an in frame fusion at the carboxyl terminus of the GST gene; made in house; host or cells: Spodoptera frugiperda Sf21 insect cells, baculovirus vector pAcG2T
T1 sequence (P35968 786-1356 limits assumed): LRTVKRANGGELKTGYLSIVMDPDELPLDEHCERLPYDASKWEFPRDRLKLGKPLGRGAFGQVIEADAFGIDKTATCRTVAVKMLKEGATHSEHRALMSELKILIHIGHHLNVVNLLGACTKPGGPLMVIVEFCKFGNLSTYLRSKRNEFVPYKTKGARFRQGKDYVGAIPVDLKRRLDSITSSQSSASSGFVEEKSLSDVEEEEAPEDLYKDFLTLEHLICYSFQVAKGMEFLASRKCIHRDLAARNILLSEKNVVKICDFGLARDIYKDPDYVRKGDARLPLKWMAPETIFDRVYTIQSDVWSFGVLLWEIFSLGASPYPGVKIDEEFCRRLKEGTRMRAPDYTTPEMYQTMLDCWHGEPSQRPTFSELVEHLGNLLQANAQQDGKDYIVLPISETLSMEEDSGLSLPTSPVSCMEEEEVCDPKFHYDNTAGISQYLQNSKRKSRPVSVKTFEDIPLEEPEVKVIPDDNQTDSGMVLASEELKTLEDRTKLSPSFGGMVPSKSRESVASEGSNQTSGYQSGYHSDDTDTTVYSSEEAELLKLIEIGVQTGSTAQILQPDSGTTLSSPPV
Method: VEGF receptor kinase activity is measured by incorporation of radiolabelled phosphate into 4:1 polyglutamic acid/tyrosine substrate (pEY). The phosphorylated pEY product is trapped on a filter membrane and the incorporation of radiolabelled phosphate is quantified by scintillation counting.
The intracellular tyrosine kinase domains of human KDR (Terman, B. I. et al. Oncogene (1991) Vol. 6, pp. 1677-1683.) and Flt-1 (Shibuya, M. et al. Oncogene (1990) Vol. 5, pp. 519-524) were cloned as glutathione S-transferase (GST) gene fusion proteins. This was accomplished by cloning the cytoplasmic domain of the KDR kinase as an in frame fusion at the carboxyl terminus of the GST gene. Soluble recombinant GST-kinase domain fusion proteins were expressed in Spodoptera frugiperda (Sf21) insect cells (Invitrogen) using a baculovirus expression vector (pAcG2T, Pharmingen).
1. Sf21 cells were infected with recombinant virus at a multiplicity of infection of 5 virus particles/cell and grown at 27° C. for 48 hours. 2. All steps were performed at 4° C. Infected cells were harvested by centrifugation at 1000×g and lysed at 4° C. for 30 minutes with 1/10 volume of lysis buffer followed by centrifugation at 100000×g for 1 hour. The supernatant was then passed over a glutathione Sepharose acid (Pharmacia) equilibrated with lysis buffer and washed with 5 volumes of the same buffer followed by 5 volumes of wash buffer. Recombinant GST-KDR protein was eluted with wash buffer/10 mM reduced glutathione (Sigma) and dialysed against dialysis buffer.
1. Add 5 μl of inhibitor or control to the assay in 50% DMSO. 2. Add 35 μl of reaction mixture containing 5 μl of 10× reaction buffer, 5 μl of 25 mM ATP/10 μCi[^33P]ATP (Amersham) and 5 μl of 10× substrate. 3. Start the reaction by the addition of 10 μl of KDR (25 nM) in enzyme dilution buffer. 4. Mix and incubate at room temperature for 15 minutes. 5. Stop the reaction by the addition of 50 μl of stop solution. 6. Incubate at 4° C. for 15 minutes. 7. Transfer a 90 μl aliquot to filter plate. 8. Aspirate and wash 3 times with wash solution. 9. Add 30 μl of scintillation cocktail, seal plate and count in a Wallace Microbeta scintillation counter.

Sequence of Tie-2 kinase (Q02763 23-1124): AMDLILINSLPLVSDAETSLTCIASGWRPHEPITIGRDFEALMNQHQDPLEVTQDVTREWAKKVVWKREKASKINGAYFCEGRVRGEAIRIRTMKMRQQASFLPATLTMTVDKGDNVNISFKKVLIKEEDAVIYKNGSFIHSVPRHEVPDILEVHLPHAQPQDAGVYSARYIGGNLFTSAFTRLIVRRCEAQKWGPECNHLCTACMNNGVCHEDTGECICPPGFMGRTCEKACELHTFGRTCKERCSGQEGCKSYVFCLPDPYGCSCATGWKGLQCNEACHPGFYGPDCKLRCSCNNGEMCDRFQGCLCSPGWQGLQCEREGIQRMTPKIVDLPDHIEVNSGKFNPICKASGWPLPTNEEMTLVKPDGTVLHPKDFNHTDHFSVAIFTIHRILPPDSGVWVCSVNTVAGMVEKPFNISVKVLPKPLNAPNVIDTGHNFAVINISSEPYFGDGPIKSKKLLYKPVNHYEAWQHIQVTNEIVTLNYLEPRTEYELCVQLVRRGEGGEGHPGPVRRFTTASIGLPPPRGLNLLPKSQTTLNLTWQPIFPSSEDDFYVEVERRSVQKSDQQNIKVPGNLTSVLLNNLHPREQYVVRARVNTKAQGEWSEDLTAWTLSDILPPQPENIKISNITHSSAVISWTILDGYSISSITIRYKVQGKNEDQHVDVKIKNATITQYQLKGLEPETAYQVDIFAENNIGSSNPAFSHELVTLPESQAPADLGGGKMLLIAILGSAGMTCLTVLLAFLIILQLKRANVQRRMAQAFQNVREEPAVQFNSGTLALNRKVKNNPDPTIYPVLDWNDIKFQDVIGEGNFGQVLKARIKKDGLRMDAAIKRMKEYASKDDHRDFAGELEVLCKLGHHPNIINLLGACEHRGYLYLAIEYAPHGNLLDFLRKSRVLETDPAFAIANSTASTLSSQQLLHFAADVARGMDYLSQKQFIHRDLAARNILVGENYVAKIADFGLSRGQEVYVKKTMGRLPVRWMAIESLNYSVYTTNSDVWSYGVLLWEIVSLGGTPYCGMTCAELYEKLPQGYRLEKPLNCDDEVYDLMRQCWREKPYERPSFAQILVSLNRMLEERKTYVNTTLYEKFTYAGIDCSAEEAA

| IC50 (Tie-2 kinase) [nM] | IC50 (VEGFR (KDR)) [nM] | SMILES |
| --- | --- | --- |
| 14 | 3.6 | Nc1ncnc2c1ncn2-c1ccc(NC(=O)Nc2cccc(C(F)(F)F)c2)cc1 [Compound 2, 1-[4-(6-aminopurin-9-yl)phenyl]-3-(3-trifluoromethylphenyl)urea] |
| 19.5 | 2 | CC(C)(C)c1cc(NC(=O)Nc2ccc(-n3cnc4c(N)ncnc43)cc2)no1 [Compound 15, 1-[4-(6-aminopurin-9-yl)phenyl]-3-(5-tert-butylisoxazol-3-yl)urea] |
| 49 | 5.7 | Nc1ncnc2c1ncn2-c1ccc(NC(=O)Nc2cc(C(F)(F)F)ccc2F)cc1 [Compound 4, 1-[4-(6-aminopurin-9-yl)phenyl]-3-(2-fluoro-5-trifluoromethylphenyl)urea] |
| 110 | 4.4 | Nc1ncnc2c1ncn2-c1ccc(NC(=O)Nc2ccc(OC3CCNC3)c(C(F)(F)F)c2)cc1 (stereo not shown) [Compound 11, 1-[4-(6-aminopurin-9-yl)phenyl]-3-[4-(pyrrolidin-3-yloxy)-3-trifluoromethylphenyl]urea] |
| 35 | 5 | Nc1ncnc2c1ncn2-c1ccc(NC(=O)Nc2cccc(OC(F)(F)F)c2)cc1 [Compound 5, 1-[4-(6-aminopurin-9-yl)phenyl]-3-(3-trifluoromethoxyphenyl)urea] |
| 100 | 4.6 | Nc1ncnc2c1ncn2-c1ccc(NC(=O)Nc2cc(C(F)(F)F)ccn2)cc1 [Compound 6, 1-[4-(6-aminopurin-9-yl)phenyl]-3-(4-trifluoromethylpyridin-2-yl)urea] |
| 34.3 | 88 | Nc1ncnc2c1ncn2-c1ccc(NC(=O)Nc2cc(C(F)(F)F)ccc2OC2CCNC2)cc1 (stereo not shown) [Compound 1, 1-[4-(6-aminopurin-9-yl)phenyl]-3-[2-(pyrrolidin-3-yloxy)-5-trifluoromethylphenyl]urea] |

| SMILES | IC50 (Tie-2 kinase) [nM] | IC50 (VEGFR (KDR)) [nM] |
| --- | --- | --- |
| Nc1ncnc2c1ncn2-c1ccc(NC(=O)Nc2cc(C(F)(F)F)ccc2-n2cncn2)cc1 [Compound 9, 1-[4-(6-aminopurin-9-yl)phenyl]-3-(2-[1,2,4]triazol-1-yl-5-trifluoromethylphenyl)urea] | 12.5 | 7.7 |
